Source: US12134616B2, “Tricyclic pesticidal compounds” (BASF SE, priority 2018, dated 2024)

Key:
Type in all cases: in vivo
[1] = system: vetch aphid (Megoura viciae); experiment: Vetch aphid (Megoura viciae) broad bean leaf disk test, contact or systemic; settings: foliar, 120 h, sprayed onto leaf disks, 5 days, read-out: mortality (aphid) in comparison with untreated controls
Procedure: (§1) If not otherwise specified, the test solutions are prepared as follows: The active compound is dissolved at the desired concentration in a mixture of 1:1 (vol:vol) distilled water:acteone. The test solution is prepared at the day of use. Test solutions are prepared in general at concentrations of 1000 ppm, 500 ppm, 300 ppm, 100 ppm and 30 ppm (wt/vol).
For evaluating control of vetch aphid (Megoura viciae) through contact or systemic means the test unit consisted of 24-well-microtiter plates containing broad bean leaf disks.
The compounds were formulated using a solution containing 75% v/v water and 25% v/v DMSO. Different concentrations of formulated compounds were sprayed onto the leaf disks at 2.5 μl, using a custom built micro atomizer, at two replications. After application, the leaf disks were air-dried and 5-8 adult aphids placed on the leaf disks inside the microtiter plate wells. The aphids were then allowed to suck on the treated leaf disks and incubated at about 23±1° C. and about 50±5% relative humidity for 5 days. Aphid mortality and fecundity was then visually assessed.

[2] = system: tobacco budworm (Heliothis virescens); experiment: Tobacco budworm (Heliothis virescens) microtiter diet test, egg and larval mortality; settings: 120 h, sprayed onto insect diet, 5 days, read-out: mortality (egg and larval) in comparison with untreated controls
Procedure: as §1
(§2) For evaluating control of tobacco budworm (Heliothis virescens) the test unit consisted of 96-well-microtiter plates containing an insect diet and 15-25 H. virescens eggs. The compounds were formulated using a solution containing 75% v/v water and 25% v/v DMSO. Different concentrations of formulated compounds were sprayed onto the insect diet at 10 μl, using a custom built micro atomizer, at two replications. After application, microtiter plates were incubated at about 28±1° C. and about 80±5% relative humidity for 5 days. Egg and larval mortality was then visually assessed.

[3] = system: green peach aphid (Myzus persicae); experiment: Green peach aphid (Myzus persicae) artificial diet/membrane test, systemic; settings: 72 h, pipetted into aphid diet, 3 days, read-out: mortality (aphid) in comparison with untreated controls
Procedure: as §1
For evaluating control of green peach aphid (Myzus persicae) through systemic means the test unit consisted of 96-well-microtiter plates containing liquid artificial diet under an artificial membrane. The compounds were formulated using a solution containing 75% v/v water and 25% v/v DMSO. Different concentrations of formulated compounds were pipetted into the aphid diet, using a custom built pipetter, at two replications. After application, 5-8 adult aphids were placed on the artificial membrane inside the microtiter plate wells. The aphids were then allowed to suck on the treated aphid diet and incubated at about 23±1° C. and about 50±5% relative humidity for 3 days. Aphid mortality and fecundity was then visually assessed.

[4] = system: boll weevil (Anthonomus grandis); experiment: Boll weevil (Anthonomus grandis) microtiter diet test, egg and larval mortality; settings: 120 h, sprayed onto insect diet, 5 days, read-out: mortality (egg and larval) in comparison with untreated controls
Procedure: as §1
as §2, with “boll weevil (Anthonomus grandis)” for “tobacco budworm (Heliothis virescens)”, “5-10 A. grandis” for “15-25 H. virescens”, “5” for “10”, “25±1°” for “28±1°”, “75±5%” for “80±5%”

Measured: mortality at 2500 ppm

CCS(=O)(=O)c1cc(C(F)(F)F)cnc1-c1nc2cnc3c(OC(F)(F)F)cccc3c2n1C [Compound I.1, 2-[3-ethylsulfonyl-5-(trifluoromethyl)-2-pyridyl]-1-methyl-6-(trifluoromethoxy)imidazo[4,5-c]quinoline]
> 75%: all assays above

CCSc1cc(C(F)(F)F)cnc1-c1nc2cnc3c(OC(F)(F)F)cccc3c2n1C [Compound I.5, 2-[3-ethylsulfanyl-5-(trifluoromethyl)-2-pyridyl]-1-methyl-6-(trifluoromethoxy)imidazo[4,5-c]quinoline]
> 75%: [2] | [4]

CCS(=O)(=O)c1cccnc1-c1cn2c(ccc3c(C(F)(F)F)cc(C(F)(F)F)nc32)n1 [Compound I.54, 8-(3-ethylsulfonyl-2-pyridyl)-2,4-bis(trifluoromethyl)imidazo[1,2-a][1,8]naphthyridine]
> 75%: [1] | [2] | [4]

CCS(=O)(=O)c1cccnc1-c1nc2cc(C(F)(F)F)c3ccccc3n2n1 [Compound I.65, 2-(3-ethylsulfonyl-2-pyridyl)-5-(trifluoromethyl)-[1,2,4]triazolo[1,5-a]quinoline]
> 75%: all assays above
